Experimental data published in the supplement of paper PMC11208160.

Experiment: recombinant barcode read abundance after kanamycin selection (control-corrected) (log10(CPM+1)); higher = more efficient recombination; sequences stand for … in AGTGCAGAGAAAATCGGCCAGTTTTCTCTGCCTGCAGTCCGCATGCCGT…AGATTTATGCAGCGGACTGCCTTTCTCCCAAAGTGATAAACCGGACAGTATCATGGACCGGTTTTCCCGGTAATCCGTATTTGCAAGGTTGGTTTCACT; site = the 11-nt target
Summary of the method: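 Duplicate cultures were plated either on chloramphenicol/ampicillin LB agar, serving as control, or on chloramphenicol/ampicillin/kanamycin with 0.1 mM IPTG. These came from a pooled E. coli library co-electroporated with a donor plasmid, each member pairing a target with an IS621 bridge RNA target-binding loop. Recombination efficiency equals averaged, control-corrected counts per million of recombinant-junction barcodes. It is listed as log10(CPM+1).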
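Also: IS621 recombinase and bridge RNA in Escherichia coli cells.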

“GTCACTACTTGGGTTCTAACCTGTTGCCG (site GTCGCTACTCG)” and “GTCACTACTTGGGTTCTAACCTGTTGCCG (site GTCTCTACTCG)” are within 0.2 log units of each other in “recombinant barcode read abundance (log10)” value: 0.0416 for the first, 0.127 for the second.

“GTCAGCCCTTGGGTTCTAACCTGTTGCTG (site GACAGCCCTCA)” and “GTCAGCCCTTGGGTTCTAACCTGTTGCTG (site GTCAGCCCTCA)” are within 0.2 log units of each other in “recombinant barcode read abundance (log10)” value: 0.379 for the first, 0.255 for the second.

First: GTCATGTCTTGGGTTCTAACCTGTTGCCT (site GCCATGTCTAG)
Second: GTCATGTCTTGGGTTCTAACCTGTTGCCT (site GTCATGTCTAG)
The “recombinant barcode read abundance (log10)” value of the first is lower: 0.781 for the first, 1.45 for the second.

Compared with “GTCATGTCTTGGGTTCTAACCTGTTGCTC (site AGACGACCTCC)”, “GTCATGTCTTGGGTTCTAACCTGTTGCTC (site GTCATGTCTGA)” is higher in “recombinant barcode read abundance (log10)” value: 0.0394 for the first, 1.23 for the second.

Going from “GTCCAGACTTGGGTTCTAACCTGTTGCCT (site GTACAGACTAG)” to “GTCCAGACTTGGGTTCTAACCTGTTGCCT (site GTCCAGACTAG)”, the “recombinant barcode read abundance (log10)” value rises from 0.92 to 1.97.

First: GTCCAGACTTGGGTTCTAACCTGTTGCCT (site GTGCAGACTAG)
Second: GTCCAGACTTGGGTTCTAACCTGTTGCCT (site GTTCAGACTAG)
The “recombinant barcode read abundance (log10)” value of the first is higher: 0.508 for the first, 0.228 for the second.

Compared with “GTCCAGCCTTGGGTTCTAACCTGTTGCAC (site CAAAGAGCTCA)”, “GTCCAGCCTTGGGTTCTAACCTGTTGCAC (site GTCCAGCCTGT)” is higher in “recombinant barcode read abundance (log10)” value: 0.291 for the first, 2.18 for the second.

First: GTCCCCTCTTGGGTTCTAACCTGTTGCCT (site GTCACCTCTAG)
Second: GTCCCCTCTTGGGTTCTAACCTGTTGCCT (site GTCCCCTCTAG)
The “recombinant barcode read abundance (log10)” value of the first is lower: 0.0601 for the first, 1.74 for the second.

“GTCCCCTCTTGGGTTCTAACCTGTTGCCT (site GTCGCCTCTAG)” and “GTCCCCTCTTGGGTTCTAACCTGTTGCCT (site GTCTCCTCTAG)” are within 0.2 log units of each other in “recombinant barcode read abundance (log10)” value: 0.109 for the first, 0.0122 for the second.

Going from “GTCCCTACTTGGGTTCTAACCTGTTGCCG (site GTCACTACTCG)” to “GTCCCTACTTGGGTTCTAACCTGTTGCCG (site GTCCCTACTCG)”, the “recombinant barcode read abundance (log10)” value rises from 0.12 to 1.11.

“GTCCCTACTTGGGTTCTAACCTGTTGCCG (site GTCGCTACTCG)” and “GTCCCTACTTGGGTTCTAACCTGTTGCCG (site GTCTCTACTCG)” are within 0.2 log units of each other in “recombinant barcode read abundance (log10)” value: 0 for the first, 0.0614 for the second.

Compared with “GTCCGCTCTTGGGTTCTAACCTGTTGCCT (site ATCCGCTCTAG)”, “GTCCGCTCTTGGGTTCTAACCTGTTGCCT (site CTCCGCTCTAG)” is lower in “recombinant barcode read abundance (log10)” value: 1.4 for the first, 0.823 for the second.

First: GTCCGCTCTTGGGTTCTAACCTGTTGCCT (site GTCCGCTCTAG)
Second: GTCCGCTCTTGGGTTCTAACCTGTTGCCT (site TTCCGCTCTAG)
The “recombinant barcode read abundance (log10)” value of the first is higher: 2.37 for the first, 0.383 for the second.

Going from “GTCCGGTCTTGGGTTCTAACCTGTTGCTT (site GTCCGGTCTAA)” to “GTCCGGTCTTGGGTTCTAACCTGTTGCTT (site GTCGGGTCTAG)”, the “recombinant barcode read abundance (log10)” value falls from 1.07 to 0.097.

First: GTCCGTCCTTGGGTTCTAACCTGTTGCTT (site GTCCGTCCTAA)
Second: GTCCGTCCTTGGGTTCTAACCTGTTGCTT (site GTCCGTCCTAC)
The “recombinant barcode read abundance (log10)” value of the first is higher: 0.907 for the first, 0.0973 for the second.

“GTCCGTCCTTGGGTTCTAACCTGTTGCTT (site GTCCGTCCTAG)” and “GTCCGTCCTTGGGTTCTAACCTGTTGCTT (site GTCCGTCCTAT)” are within 0.2 log units of each other in “recombinant barcode read abundance (log10)” value: 0.249 for the first, 0.416 for the second.

First: GTCCTACCTTGGGTTCTAACCTGTTGCTA (site AGAAATACTCG)
Second: GTCCTACCTTGGGTTCTAACCTGTTGCTA (site GTCCTACCTTA)
The “recombinant barcode read abundance (log10)” value of the first is lower: 0.442 for the first, 1.63 for the second.

First: GTCCTATCTTGGGTTCTAACCTGTTGCAC (site CGAGGCCCTAA)
Second: GTCCTATCTTGGGTTCTAACCTGTTGCAC (site GTCCTATCTGT)
The “recombinant barcode read abundance (log10)” value of the first is lower: 0.0371 for the first, 1.98 for the second.

“GTCGATCCTTGGGTTCTAACCTGTTGCCT (site GACGATCCTAG)” and “GTCGATCCTTGGGTTCTAACCTGTTGCCT (site GCCGATCCTAG)” are within 0.2 log units of each other in “recombinant barcode read abundance (log10)” value: 0.69 for the first, 0.639 for the second.

First: GTCGATCCTTGGGTTCTAACCTGTTGCCT (site GGCGATCCTAG)
Second: GTCGATCCTTGGGTTCTAACCTGTTGCCT (site GTCGATCCTAG)
The “recombinant barcode read abundance (log10)” value of the first is lower: 0.221 for the first, 1.68 for the second.

First: GTCGCCTCTTGGGTTCTAACCTGTTGCCT (site GTCACCTCTAG)
Second: GTCGCCTCTTGGGTTCTAACCTGTTGCCT (site GTCCCCTCTAG)
The “recombinant barcode read abundance (log10)” value of the first is lower: 0.157 for the first, 0.491 for the second.

First: GTCGCCTCTTGGGTTCTAACCTGTTGCCT (site GTCGCCTCTAG)
Second: GTCGCCTCTTGGGTTCTAACCTGTTGCCT (site GTCTCCTCTAG)
The “recombinant barcode read abundance (log10)” value of the first is higher: 0.297 for the first, 0.0886 for the second.

First: GTCGGAGCTTGGGTTCTAACCTGTTGCAG (site GTCGGAGCTCA)
Second: GTCGGAGCTTGGGTTCTAACCTGTTGCAG (site GTCGGAGCTCC)
The “recombinant barcode read abundance (log10)” value of the first is higher: 0.681 for the first, 0.165 for the second.

Compared with “GTCGGAGCTTGGGTTCTAACCTGTTGCAG (site GTCGGAGCTCG)”, “GTCGGAGCTTGGGTTCTAACCTGTTGCAG (site GTCGGAGCTCT)” is higher in “recombinant barcode read abundance (log10)” value: 0.104 for the first, 1.89 for the second.

Going from “GTCGGGTCTTGGGTTCTAACCTGTTGCCT (site GTCCGGTCTAA)” to “GTCGGGTCTTGGGTTCTAACCTGTTGCCT (site GTCGGGTCTAG)”, the “recombinant barcode read abundance (log10)” value rises from 0.054 to 1.47.

Going from “GTCGGTCCTTGGGTTCTAACCTGTTGCCG (site AGTTTAACTGT)” to “GTCGGTCCTTGGGTTCTAACCTGTTGCCG (site GTCGGTCCTCG)”, the “recombinant barcode read abundance (log10)” value rises from 0.0178 to 1.04.

“GTCGTCCCTTGGGTTCTAACCTGTTGCCA (site GCCGTCCCTTA)” and “GTCGTCCCTTGGGTTCTAACCTGTTGCCA (site GTCGTCCCTTG)” are within 0.2 log units of each other in “recombinant barcode read abundance (log10)” value: 0.071 for the first, 0.231 for the second.

“GTCTATGCTTGGGTTCTAACCTGTTGCCT (site GACTATGCTAG)” and “GTCTATGCTTGGGTTCTAACCTGTTGCCT (site GCCTATGCTAG)” are within 0.2 log units of each other in “recombinant barcode read abundance (log10)” value: 0.106 for the first, 0.213 for the second.

“GTCTATGCTTGGGTTCTAACCTGTTGCCT (site GGCTATGCTAG)” and “GTCTATGCTTGGGTTCTAACCTGTTGCCT (site GTCTATGCTAG)” are within 0.2 log units of each other in “recombinant barcode read abundance (log10)” value: 0.185 for the first, 0.0906 for the second.

Compared with “GTCTCAACTTGGGTTCTAACCTGTTGCCT (site GTCTCAACTAG)”, “GTCTCAACTTGGGTTCTAACCTGTTGCCT (site TTCTGAACTAG)” is lower in “recombinant barcode read abundance (log10)” value: 0.604 for the first, 0.0305 for the second.

Going from “GTCTCATCTTGGGTTCTAACCTGTTGCAT (site AGTATCCCTCG)” to “GTCTCATCTTGGGTTCTAACCTGTTGCAT (site GTCTCATCTAT)”, the “recombinant barcode read abundance (log10)” value rises from 0.0153 to 0.362.

“GTCTCTACTTGGGTTCTAACCTGTTGCGG (site GTCGCTACTCC)” and “GTCTCTACTTGGGTTCTAACCTGTTGCGG (site GTCTCTACTCC)” are within 0.2 log units of each other in “recombinant barcode read abundance (log10)” value: 0 for the first, 0.00855 for the second.

“GTCTCTCCTTGGGTTCTAACCTGTTGCAG (site AAGGGCTCTAA)” and “GTCTCTCCTTGGGTTCTAACCTGTTGCAG (site GTCTCTCCTCT)” are within 0.2 log units of each other in “recombinant barcode read abundance (log10)” value: 0.0245 for the first, 0.0635 for the second.

“GTCTCTCCTTGGGTTCTAACCTGTTGCCG (site GTCTCTCCTCG)” and “GTCTCTCCTTGGGTTCTAACCTGTTGCCG (site GTGTCTCCTCG)” are within 0.2 log units of each other in “recombinant barcode read abundance (log10)” value: 0.0734 for the first, 0.0724 for the second.

“GTCTGATCTTGGGTTCTAACCTGTTGCCT (site GTCTAATCTAG)” and “GTCTGATCTTGGGTTCTAACCTGTTGCCT (site GTCTCATCTAG)” are within 0.2 log units of each other in “recombinant barcode read abundance (log10)” value: 0.0854 for the first, 0.113 for the second.

Compared with “GTCTGATCTTGGGTTCTAACCTGTTGCCT (site GTCTGATCTAG)”, “GTCTGATCTTGGGTTCTAACCTGTTGCCT (site GTCTTATCTAG)” is lower in “recombinant barcode read abundance (log10)” value: 0.97 for the first, 0.186 for the second.

“GTCTGCCCTTGGGTTCTAACCTGTTGCCT (site GACTGCCCTAG)” and “GTCTGCCCTTGGGTTCTAACCTGTTGCCT (site GCCTGCCCTAG)” are within 0.2 log units of each other in “recombinant barcode read abundance (log10)” value: 0.181 for the first, 0.191 for the second.

First: GTCTGCCCTTGGGTTCTAACCTGTTGCCT (site GGCTGCCCTAG)
Second: GTCTGCCCTTGGGTTCTAACCTGTTGCCT (site GTCTGCCCTAG)
The “recombinant barcode read abundance (log10)” value of the first is lower: 0.239 for the first, 1.73 for the second.

Compared with “GTCTTAACTTGGGTTCTAACCTGTTGCCG (site GTCTTAACTCG)”, “GTCTTAACTTGGGTTCTAACCTGTTGCCG (site GTCTTGACTTG)” is lower in “recombinant barcode read abundance (log10)” value: 0.338 for the first, 0.0525 for the second.

Going from “GTGAACTCTTGGGTTCTAACCTGTTGCCT (site GTAAACTCTAG)” to “GTGAACTCTTGGGTTCTAACCTGTTGCCT (site GTCAACTCTAG)”, the “recombinant barcode read abundance (log10)” value falls from 1.56 to 0.0453.

Going from “GTGAACTCTTGGGTTCTAACCTGTTGCCT (site GTGAACTCTAG)” to “GTGAACTCTTGGGTTCTAACCTGTTGCCT (site GTTAACTCTAG)”, the “recombinant barcode read abundance (log10)” value falls from 1.85 to 0.542.

First: GTGAGATCTTGGGTTCTAACCTGTTGCCT (site GTGAGATCTAG)
Second: GTGAGATCTTGGGTTCTAACCTGTTGCCT (site GTGGAATCTAG)
The “recombinant barcode read abundance (log10)” value of the first is higher: 1.06 for the first, 0.079 for the second.

First: GTGAGCCCTTGGGTTCTAACCTGTTGCCG (site GTGAGCCCTCG)
Second: GTGAGCCCTTGGGTTCTAACCTGTTGCCG (site GTGCGCTCTCG)
The “recombinant barcode read abundance (log10)” value of the first is higher: 1.01 for the first, 0.0474 for the second.
